Laboratory results as given in ChEMBL document CHEMBL4421719, “Modulation of k2p channels” (2016).
Calls of active or inactive are those of the source. The calls are words filed in the database; no cut-off is given here.

Columns and labels:
[1] = molecular target: T1, Potassium channel subfamily K member 2 (Homo sapiens, UniProt O95069); experiment: Inhibition of K2P2.1 (unknown origin) expressed in Xenopus oocytes assessed as effect on channel currents at -80 mV holding potential by two-electrode voltage clamp assay; assay type: cell-based
T1 sequence (O95069 whole entry): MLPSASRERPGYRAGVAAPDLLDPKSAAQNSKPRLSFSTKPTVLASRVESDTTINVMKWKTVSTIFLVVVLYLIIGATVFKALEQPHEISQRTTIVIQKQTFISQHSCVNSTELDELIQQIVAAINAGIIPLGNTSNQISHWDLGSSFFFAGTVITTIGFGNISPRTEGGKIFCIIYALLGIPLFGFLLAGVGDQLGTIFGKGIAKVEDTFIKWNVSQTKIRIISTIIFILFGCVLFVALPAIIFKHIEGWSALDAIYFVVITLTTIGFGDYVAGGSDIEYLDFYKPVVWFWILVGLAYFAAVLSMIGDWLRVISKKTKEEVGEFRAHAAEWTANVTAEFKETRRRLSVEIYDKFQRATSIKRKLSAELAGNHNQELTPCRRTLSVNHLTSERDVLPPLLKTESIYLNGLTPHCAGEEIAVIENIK

[2] = molecular target: T2, Potassium channel subfamily K member 2 (Homo sapiens) (UniProt O95069); experiment: Inhibition of K2P2.1 (unknown origin) expressed in SGY1528 yeast cells assessed as inhibition of cell growth at 10 uM incubated for 24 hrs by alamar blue dye based assay relative to control
T2 sequence (whole entry): T1 sequence (O95069 whole entry)

[3] = molecular target: T2, Potassium channel subfamily K member 2 (Homo sapiens); experiment: Antagonist activity at K2P2.1 (unknown origin) expressed in Xenopus oocytes assessed as suppression of channel currents at 20 uM at -80 mV holding potential by two-electrode voltage clamp assay relative to control; assay type: cell-based
Homo sapiens = species on record: Homo sapiens; experiment: Selectivity index, ratio of IC50 for inhibition of Trk1p (unknown origin) expressed in SGY1528 yeast cells assessed as inhibition of cell growth by alamar blue dye based assay to IC50 for inhibition of K2P2.1 (unknown origin) expressed in SGY1528 yeast cells assessed as inhibition of cell growth by alamar blue dye based assay
[4] = molecular target: T2, Potassium channel subfamily K member 2 (Homo sapiens); experiment: Inhibition of K2P2.1 (unknown origin) expressed in Xenopus oocytes assessed as effect on channel currents at -80 mV holding potential at 100 uM by two-electrode voltage clamp assay relative to control; assay type: cell-based
[5] = molecular target: T2, Potassium channel subfamily K member 2 (Homo sapiens); experiment: Activation of K2P2.1 (unknown origin) expressed in Xenopus oocytes assessed as effect on channel currents at +40 mV holding potential at 100 uM by two-electrode voltage clamp assay; assay type: cell-based
[6] = molecular target: T3, Potassium channel subfamily K member 10 (Homo sapiens, UniProt P57789); experiment: Activation of K2P10.1 (unknown origin) expressed in Xenopus oocytes assessed as effect on channel currents at -80 mV holding potential by two-electrode voltage clamp assay; assay type: cell-based
T3 sequence (P57789 whole entry): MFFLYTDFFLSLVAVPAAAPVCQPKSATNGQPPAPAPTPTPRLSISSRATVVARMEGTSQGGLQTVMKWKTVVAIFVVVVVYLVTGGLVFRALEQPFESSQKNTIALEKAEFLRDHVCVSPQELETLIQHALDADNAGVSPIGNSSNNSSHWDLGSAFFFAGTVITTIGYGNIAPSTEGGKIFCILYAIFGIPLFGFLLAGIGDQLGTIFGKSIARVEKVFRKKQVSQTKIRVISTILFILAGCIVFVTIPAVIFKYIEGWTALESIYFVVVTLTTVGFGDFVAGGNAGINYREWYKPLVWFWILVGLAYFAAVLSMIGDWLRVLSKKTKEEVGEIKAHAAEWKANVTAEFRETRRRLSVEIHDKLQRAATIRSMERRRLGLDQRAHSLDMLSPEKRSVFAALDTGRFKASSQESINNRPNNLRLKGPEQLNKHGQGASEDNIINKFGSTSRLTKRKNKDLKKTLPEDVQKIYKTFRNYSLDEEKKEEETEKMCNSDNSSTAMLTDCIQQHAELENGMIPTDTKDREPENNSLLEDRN

[7] = molecular target: T2, Potassium channel subfamily K member 2 (Homo sapiens); experiment: Activation of K2P2.1 (unknown origin) expressed in Xenopus oocytes assessed as effect on channel currents at 200 uM at -80 mV holding potential by two-electrode voltage clamp assay; assay type: cell-based
[8] = molecular target: T2, Potassium channel subfamily K member 2 (Homo sapiens); experiment: Reversible activation of K2P2.1 (unknown origin) expressed in Xenopus oocytes assessed as effect on channel currents at 100 uM at -80 mV holding potential by two-electrode voltage clamp assay relative to control; assay type: cell-based
[9] = molecular target: Potassium voltage-gated channel subfamily KQT member 2 (Homo sapiens) (UniProt O43526); experiment: Activation of Kv7.2 (unknown origin) expressed in Xenopus oocytes assessed as effect on channel currents at 100 uM at -80 mV holding potential by two-electrode voltage clamp assay relative to control; assay type: cell-based
[10] = molecular target: Potassium channel subfamily K member 3 (Homo sapiens) (UniProt O14649); experiment: Activation of K2P3.1 (unknown origin) expressed in Xenopus oocytes assessed as effect on channel currents at -80 mV holding potential by two-electrode voltage clamp assay relative to control; assay type: cell-based
[11] = molecular target: Potassium voltage-gated channel subfamily KQT member 2 (Homo sapiens) (UniProt O43526); experiment: Activation of Kv7.2 (unknown origin) expressed in Xenopus oocytes assessed as effect on channel currents at -80 mV holding potential by two-electrode voltage clamp assay relative to control; assay type: cell-based
[12] = molecular target: T2, Potassium channel subfamily K member 2 (Homo sapiens); experiment: Activation of K2P2.1 (unknown origin) expressed in Xenopus oocytes assessed as effect on channel currents at -80 mV holding by two-electrode voltage clamp assay relative to control; assay type: cell-based
[13] = molecular target: Potassium channel subfamily K member 3 (Homo sapiens) (UniProt O14649); experiment: Activation of K2P3.1 (unknown origin) expressed in Xenopus oocytes assessed as effect on channel currents at -80 mV holding potential at 500 uM by two-electrode voltage clamp assay relative to control; assay type: cell-based
[14] = molecular target: T2, Potassium channel subfamily K member 2 (Homo sapiens); experiment: Activation of K2P2.1 (unknown origin) expressed in Xenopus oocytes assessed as effect on channel currents at 500 uM at -80 mV holding potential by two-electrode voltage clamp assay; assay type: cell-based
[15] = molecular target: T4, Potassium channel subfamily K member 10 (Homo sapiens) (UniProt P57789); experiment: Activation of K2P10.1 (unknown origin) expressed in Xenopus oocytes assessed as effect on channel currents at 500 uM at -80 mV holding potential by two-electrode voltage clamp assay; assay type: cell-based
T4 sequence (whole entry): T3 sequence (P57789 whole entry)

[16] = molecular target: T2, Potassium channel subfamily K member 2 (Homo sapiens); experiment: Activation of K2P2.1 (unknown origin) expressed in Xenopus oocytes assessed as effect on channel currents at +40 mV holding potential at 400 uM by two-electrode voltage clamp assay; assay type: cell-based
[17] = molecular target: Potassium voltage-gated channel subfamily KQT member 2 (Homo sapiens) (UniProt O43526); experiment: Activation of Kv7.2 (unknown origin) expressed in Xenopus oocytes assessed as effect on channel currents at 500 uM at -80 mV holding potential by two-electrode voltage clamp assay relative to control; assay type: cell-based

Chain of Potassium voltage-gated channel subfamily KQT member 2 (Homo sapiens) (O43526 whole entry): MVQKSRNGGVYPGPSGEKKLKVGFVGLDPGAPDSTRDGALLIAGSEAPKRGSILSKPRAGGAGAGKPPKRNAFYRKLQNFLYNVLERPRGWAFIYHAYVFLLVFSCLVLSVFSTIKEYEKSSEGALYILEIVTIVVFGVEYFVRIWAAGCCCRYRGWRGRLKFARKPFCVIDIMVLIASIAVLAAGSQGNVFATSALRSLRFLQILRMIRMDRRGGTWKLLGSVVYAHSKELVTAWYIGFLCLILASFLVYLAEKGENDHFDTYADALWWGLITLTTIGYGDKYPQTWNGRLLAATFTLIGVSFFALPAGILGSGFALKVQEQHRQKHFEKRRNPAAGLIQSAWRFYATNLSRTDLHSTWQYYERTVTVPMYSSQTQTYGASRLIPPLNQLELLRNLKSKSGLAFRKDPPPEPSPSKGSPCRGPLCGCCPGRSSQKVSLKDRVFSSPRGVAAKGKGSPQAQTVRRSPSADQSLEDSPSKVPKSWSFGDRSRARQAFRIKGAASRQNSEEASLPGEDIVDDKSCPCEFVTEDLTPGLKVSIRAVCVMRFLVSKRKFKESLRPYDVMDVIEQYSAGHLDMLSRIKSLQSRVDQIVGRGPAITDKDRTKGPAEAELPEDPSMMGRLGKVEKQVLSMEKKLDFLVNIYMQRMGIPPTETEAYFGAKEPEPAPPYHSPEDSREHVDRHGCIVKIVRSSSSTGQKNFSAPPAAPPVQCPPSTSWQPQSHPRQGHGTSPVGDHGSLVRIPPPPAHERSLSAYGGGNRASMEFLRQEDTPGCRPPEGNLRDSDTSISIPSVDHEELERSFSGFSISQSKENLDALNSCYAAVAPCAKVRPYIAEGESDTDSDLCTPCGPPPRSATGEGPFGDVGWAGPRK
Chain of Potassium channel subfamily K member 3 (Homo sapiens) (O14649 whole entry, looked up): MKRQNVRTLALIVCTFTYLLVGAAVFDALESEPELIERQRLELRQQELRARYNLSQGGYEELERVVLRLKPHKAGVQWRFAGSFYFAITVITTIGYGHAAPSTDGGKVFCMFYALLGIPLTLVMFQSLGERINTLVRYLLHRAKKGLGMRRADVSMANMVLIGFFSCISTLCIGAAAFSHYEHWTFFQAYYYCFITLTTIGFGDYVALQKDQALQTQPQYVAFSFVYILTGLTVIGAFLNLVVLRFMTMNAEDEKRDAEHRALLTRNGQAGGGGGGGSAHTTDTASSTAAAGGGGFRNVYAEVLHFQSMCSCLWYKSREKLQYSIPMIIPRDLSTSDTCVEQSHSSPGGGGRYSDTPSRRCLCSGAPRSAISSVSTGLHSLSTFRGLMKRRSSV

Row | IC50 [1] [µM] | growth inhibition (GI) [2] [%] | inhibition [3] [%] | inhibition [4] [%] | Activity [5] | EC50 [6] [µM] | Activity [7] | fold change (FC) [8] | Activity [9] | Activity [10] | Activity [11] | Emax [12] | Emax [13] | Activity [14] | Emax [15] | Activity [16] | Emax [17] | Compound | Ratio IC50 (Homo sapiens)
1 | 21 | 66 | 30 | 70 | Active |  |  |  |  |  |  |  |  |  |  |  |  | Cc1cccc(-n2ncc3c(NCCc4ccccc4)ncnc32)c1 | < 2
2 |  | 66 |  |  |  | ≥ 250 | Active | < 11 | inactive | inactive | inactive | 11 | 1.2 | Active | 10.1 | Active | 1.8 | O=C(O)CCn1c2ccc(Cl)cc2c2cc(Cl)ccc21 | < 2
